Experimental data reported in PubChem BioAssay AID179 (DTP/NCI, 2004).
“And” between values parts separate entries of the source, which are not always exact repeats. Equal values may be shown once. The source made the active and inactive calls.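 The calls were made as follows: active = compounds giving half or more protection of infected cells from virus-caused growth loss, again on retest; inactive = the rest.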 *1 amine or outer side, *2 acyl side, *3 side chain or, on linkers, in order; H or OH if unused. Where a SMILES comes first, the peptide text is derived from it. CO = O=C([*:1])[*:2]

Test system: CEM cells HIV-1 protection, formazan growth assay
Assay: NCI AIDS Antiviral Assay
Conditions: for IC50: measured here: growth of uninfected CEM cells
Method in brief: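 Soluble formazan readout of cell growth; CEM cells ± HIV-1; 5 drug concs. ≥50% protection → retest; ≥50% again = moderately active; reproducible 100% = confirmed active.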

Compound	EC50	IC50	outcome
O=C(O)c1ccc(OCc2nc3cc(C(F)(F)F)ccc3nc2-c2ccccc2)cc1	> 200 µM	33.9 µM	–
COc1ccc2nc3cc(Cl)ccc3c(Nc3ccc(S(=O)(=O)Nc4nccs4)cc3)c2c1	> 9.77 µM	> 9.77 µM	–
CCOC(=O)CC1NC(=O)CS1 (stereo unspecified)	> 138 µM	> 138 µM	–
COc1nc2ncc([C@@H](OC(C)=O)[C@@H](COC(C)=O)OC(C)=O)nc2c(=O)[nH]1	> 200 µM	> 200 µM	–
CCOC(=O)NC(Nc1ccc(C(=O)O)cc1)(C(F)(F)F)C(F)(F)F	> 200 µM	> 200 µM	–
Cc1ccccc1CN1C2=NCCN2C(=O)C2=C1CCN(S(=O)(=O)c1ccc(Cl)c(S(N)(=O)=O)c1)C2	> 200 µM	93.3 µM	–
CCn1c(SCC(=O)NNC(=S)Nc2ccc([N+](=O)[O-])cc2)nc2ccccc2c1=O	> 200 µM	83.2 µM	–
C=CCC1(C)CCCCC1(O)CS(=O)c1ccccc1 (stereo unspecified)	–	–	inactive
COc1nc(N)c(N=CC(OC(C)=O)C(OC(C)=O)C(COC(C)=O)OC(C)=O)c(=O)n1C (stereo unspecified)	> 200 µM	–	–
Clc1ccc(OCc2nnc(CCCCCCCCc3nnc(COc4ccc(Cl)cc4Cl)n3Nc3ccccc3)n2Nc2ccccc2)c(Cl)c1	> 0.501 µM	> 0.501 µM	–
O=C(CSSCC(=O)Nc1ccc(Br)cc1)Nc1ccc(Br)cc1	–	–	inactive
COc1ccc(C2C3=C(CCCC3=O)N(c3ccccc3)C3=C2C(=O)CCC3)cc1	> 200 µM	> 200 µM	–
COc1ccc2c(c1)CN([C@@H](C)[C@H]1CC[C@H]3[C@@H]4CC[C@H]5C[C@@H](O)CC[C@]5(C)[C@H]4CC[C@]13C)CO2	> 61.7 µM	3.16 µM	–
Cc1nc2c(Br)cc(Br)cc2c(=O)n1-c1ccccc1NC1OC(CO)C(O)C(O)C1O (stereo unspecified)	> 200 µM	> 200 µM and 105 µM	–
COC(=O)[C@H](Cc1ccccc1)NC(=O)N[C@@H](C)C(=O)N[C@H](C(=O)N[C@H](C=O)Cc1ccccc1)C(C)C ({OMe-Phe-CO}-Ala-Val-Phe-aldehyde)	> 200 µM	4.79 µM	–
Cc1cc2ncn(C3CCCCO3)c2cc1C (stereo unspecified)	> 200 µM	> 200 µM	–
CC(C)(C)C1CCC2c3c([nH]c4ccccc34)C3C(=O)N(c4ccc5c(c4)C(=O)c4ccccc4C5=O)C(=O)C3C2C1 (stereo unspecified)	> 200 µM	> 200 µM	–
COc1ccc(N2C(=O)C3c4[nH]c5cc(Cl)ccc5c4C4CCC(C(C)(C)C)CC4C3C2=O)cc1 (stereo unspecified)	> 200 µM	91.2 µM	–
CC(=O)N(C(C)=O)c1c(C)cc(-c2ccccc2)oc1=O	> 200 µM	> 200 µM	–
NC1CNC(=O)c2c(Cl)sc(Cl)c21 (stereo unspecified)	> 200 µM	> 200 µM	–
O=c1[nH]c2nc3ccccc3nc2[nH]c1=O	–	> 200 µM and 151 µM	–

Compound	EC50	IC50	outcome
N#C/C(=C\c1cc2ccccc2c2ccccc12)c1ccccc1	> 12.3 µM	6.46 µM	–
O=C(NC(=S)NC(=O)c1cc(O)c(O)c(O)c1)c1cc(O)c(O)c(O)c1	> 200 µM	4.27 µM	–
Cc1cc2c(cc1Br)C1(C)CCC(C)C1(C)O2 (stereo unspecified)	> 50.1 µM	> 50.1 µM	–
COc1ccc(Nc2nc3ccccc3nc2C(=O)O)cc1OC	> 200 µM	85.1 µM	–
COc1cccc(CCCNC(=O)Cc2cc(OC)c(OC)cc2CO)c1	> 200 µM	14.5 µM	–
C1=Cc2ccccc2/C1=C/c1ccc2c(c1)OCO2	> 20.9 µM	12.3 µM	–
CC1(CCC(=O)c2ccc3c(c2)OCO3)OCCO1	> 97.7 µM	> 97.7 µM	–
CC1CCCc2c(-c3ccc(Cl)cc3)nc(N)c(C#N)c21 (stereo unspecified)	> 200 µM	26.3 µM	–
CC(=O)O[C@H]1CC[C@@]2(C)C(=CC[C@@H]3C2CC[C@@]2(C)C3CC[C@@H]2c2nc(-c3ccccc3)cs2)C1 (stereo partly specified)	> 52.5 µM	> 52.5 µM	–
FC(F)(F)C(F)(F)c1nnc(C(F)(F)C(F)(F)F)o1	> 200 µM	> 200 µM	–
Cc1ccc(N2C(=O)C3c4[nH]c5ccccc5c4C4CCC(C(C)(C)C)CC4C3C2=O)cc1 (stereo unspecified)	> 200 µM	35.5 µM	–
CCOC(=O)NC1CS(=O)(=O)CC1Cl (stereo unspecified)	> 200 µM	> 200 µM	–
O=C1C2C3SC(c4cc5ccccc5cc43)C2C(=O)N1c1ccccc1 (stereo unspecified)	–	–	inactive
CCOC(=O)c1cn(Cc2ccccc2)c(=O)n1Cc1ccccc1	> 107 µM	60.3 µM	–
COc1cc2c(cc1OC)[C@H]1C(=O)c3cc4c(cc3[C@H]1N(C)C2=O)OCO4	> 37.2 µM	0.479 µM	–
CN1CCCn2c(nc3ccccc3c2=O)C1	> 1100 µM	> 1100 µM	–
c1cc(C[N+]23CN4CN(CN(C4)C2)C3)cs1	–	–	inactive
O=[N+]([O-])c1ccc(C2Nc3cc(Cl)c(Cl)cc3S(=O)(=O)N2O)cc1 (stereo unspecified)	> 93.3 µM	64.6 µM	–
CC1=CC(O)(c2ccccn2)P(=O)(c2ccccc2)C=C1C (stereo unspecified)	> 794 µM	> 794 µM	–
Cc1ccc(NC(=O)CCc2nc(=S)[nH][nH]2)cc1	251 µM	331 µM	–
